Molecules are shown by their SMILES.

Chain of Melanocortin receptor 3 (P41968 whole entry): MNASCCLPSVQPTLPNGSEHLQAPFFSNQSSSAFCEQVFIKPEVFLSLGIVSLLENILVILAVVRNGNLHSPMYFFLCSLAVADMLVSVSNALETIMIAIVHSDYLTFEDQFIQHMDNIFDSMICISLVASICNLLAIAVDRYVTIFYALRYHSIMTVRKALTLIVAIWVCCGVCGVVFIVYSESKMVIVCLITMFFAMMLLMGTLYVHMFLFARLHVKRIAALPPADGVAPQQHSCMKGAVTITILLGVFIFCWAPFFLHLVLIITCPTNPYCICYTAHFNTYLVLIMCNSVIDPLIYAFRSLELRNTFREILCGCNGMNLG

Tested on in one experiment: not listed separately
Nature of the experiment: DRUGMATRIX: beta-Lactamase enzyme inhibition (substrate: Nitrocefin). More on the design: species or system Bacillus cereus. To be noted: Not Active = under 50% inhibition at 10 µM.
Regarding `Cc1cccc(Nc2ccccc2C(=O)O)c1C` [MEFENAMIC ACID], the IC50 entry was “Not Active” and the Ki entry is “Not Active”.

As to `COc1ccccc1OCC(O)COC(N)=O` (stereo not given) [METHOCARBAMOL], the IC50 entry is reported as “Not Active” and the Ki result is recorded as “Not Active”.

Regarding `COc1ccc2cc(CCC(C)=O)ccc2c1` [NABUMETONE], the IC50 result is on record as “Not Active” and the Ki result is on record as “Not Active”.

In the case of `CNC(=C[N+](=O)[O-])NCCSCc1csc(CN(C)C)n1` [NIZATIDINE], the IC50 entry is given as “Not Active” and the Ki entry is on record as “Not Active”.

For `C[C@]12C/C(=C/O)C(=O)C[C@@H]1CC[C@@H]1[C@@H]2CC[C@@]2(C)[C@H]1CC[C@]2(C)O` [OXYMETHOLONE], the IC50 entry was “Not Active” and the Ki result is “Not Active”.

`OCCN1CCN(CCCN2c3ccccc3Sc3ccc(Cl)cc32)CC1` [PERPHENAZINE]: the IC50 result is “Not Active” and the Ki entry is reported as “Not Active”.

The target of the next experiment is Vasopressin V1a receptor (Homo sapiens, UniProt P37288). It is filed as cell membranes, Membrane. The note with it: hek293. Further: in other assays of this panel Not Active means under 50% inhibition at 10 µM.
Chain of Vasopressin V1a receptor (P37288 whole entry): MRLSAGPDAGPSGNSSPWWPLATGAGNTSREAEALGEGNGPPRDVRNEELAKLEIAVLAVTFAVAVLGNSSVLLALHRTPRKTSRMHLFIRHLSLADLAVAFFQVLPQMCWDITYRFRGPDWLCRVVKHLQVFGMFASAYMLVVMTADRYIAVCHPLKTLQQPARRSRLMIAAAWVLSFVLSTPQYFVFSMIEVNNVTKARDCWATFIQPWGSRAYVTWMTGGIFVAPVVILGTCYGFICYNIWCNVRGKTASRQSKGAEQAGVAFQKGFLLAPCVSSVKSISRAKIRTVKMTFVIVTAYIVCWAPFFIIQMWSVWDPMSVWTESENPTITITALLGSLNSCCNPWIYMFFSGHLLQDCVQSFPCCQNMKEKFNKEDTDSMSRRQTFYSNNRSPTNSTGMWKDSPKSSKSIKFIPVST
Take `Cc1cccc(Nc2ccccc2C(=O)O)c1C` [MEFENAMIC ACID]: the IC50 result is recorded as “Not Active”.

For the compound `COc1ccccc1OCC(O)COC(N)=O` (stereo not given) [METHOCARBAMOL], the IC50 result is “Not Active”.

In the case of `COc1ccc2cc(CCC(C)=O)ccc2c1` [NABUMETONE], the IC50 result was “Not Active”.

As for `CNC(=C[N+](=O)[O-])NCCSCc1csc(CN(C)C)n1` [NIZATIDINE], the IC50 entry is listed as “Not Active”.

As to `C[C@]12C/C(=C/O)C(=O)C[C@@H]1CC[C@@H]1[C@@H]2CC[C@@]2(C)[C@H]1CC[C@]2(C)O` [OXYMETHOLONE], the IC50 result is recorded as “Not Active”.

On to `OCCN1CCN(CCCN2c3ccccc3Sc3ccc(Cl)cc32)CC1` [PERPHENAZINE], for which the IC50 result is listed as “Not Active”.

Another experiment concerns the target T1, Cholecystokinin receptor type A (Homo sapiens, UniProt P32238). Further: in other assays of this panel Not Active means under 50% inhibition at 10 µM.
T1 sequence (P32238 whole entry): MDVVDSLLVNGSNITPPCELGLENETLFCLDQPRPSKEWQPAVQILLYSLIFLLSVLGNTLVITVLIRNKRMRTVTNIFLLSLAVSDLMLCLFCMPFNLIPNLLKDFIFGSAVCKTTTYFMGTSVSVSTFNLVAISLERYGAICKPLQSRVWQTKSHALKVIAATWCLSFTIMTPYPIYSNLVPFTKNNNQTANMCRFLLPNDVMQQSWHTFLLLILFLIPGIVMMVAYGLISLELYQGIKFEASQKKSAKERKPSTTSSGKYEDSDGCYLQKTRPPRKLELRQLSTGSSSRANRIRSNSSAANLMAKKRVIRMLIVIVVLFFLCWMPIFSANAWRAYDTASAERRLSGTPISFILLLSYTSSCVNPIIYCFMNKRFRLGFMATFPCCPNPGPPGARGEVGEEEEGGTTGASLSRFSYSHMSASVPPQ
It is filed as cell membranes, Membrane. To be noted: 1321-n1.
For the compound `Cc1cccc(Nc2ccccc2C(=O)O)c1C` [MEFENAMIC ACID], the IC50 entry is recorded as “Not Active”.

For the compound `COc1ccccc1OCC(O)COC(N)=O` (stereo not given) [METHOCARBAMOL], the IC50 result is “Not Active”.

On to `COc1ccc2cc(CCC(C)=O)ccc2c1` [NABUMETONE], for which the IC50 result is on record as “Not Active”.

Consider `CNC(=C[N+](=O)[O-])NCCSCc1csc(CN(C)C)n1` [NIZATIDINE], for which the IC50 result is “Not Active”.

`C[C@]12C/C(=C/O)C(=O)C[C@@H]1CC[C@@H]1[C@@H]2CC[C@@]2(C)[C@H]1CC[C@]2(C)O` [OXYMETHOLONE]: the IC50 entry is recorded as “Not Active”.

With `OCCN1CCN(CCCN2c3ccccc3Sc3ccc(Cl)cc32)CC1` [PERPHENAZINE], the IC50 entry is recorded as “Not Active”.

Another experiment concerns the target Melanocortin receptor 3 (Homo sapiens, UniProt P41968). It is filed as cell membranes, Membrane. The note with it: hek293. Further: in other assays of this panel Not Active means under 50% inhibition at 10 µM.
In the case of `Cc1cccc(Nc2ccccc2C(=O)O)c1C` [MEFENAMIC ACID], the IC50 result is listed as “Not Active”.

Consider `COc1ccccc1OCC(O)COC(N)=O` (stereo not given) [METHOCARBAMOL], for which the IC50 entry is reported as “Not Active”.

As for `COc1ccc2cc(CCC(C)=O)ccc2c1` [NABUMETONE], the IC50 result is “Not Active”.

`CNC(=C[N+](=O)[O-])NCCSCc1csc(CN(C)C)n1` [NIZATIDINE]: the IC50 entry was “Not Active”.

For the compound `C[C@]12C/C(=C/O)C(=O)C[C@@H]1CC[C@@H]1[C@@H]2CC[C@@]2(C)[C@H]1CC[C@]2(C)O` [OXYMETHOLONE], the IC50 entry is recorded as “Not Active”.

For `OCCN1CCN(CCCN2c3ccccc3Sc3ccc(Cl)cc32)CC1` [PERPHENAZINE], the IC50 result is listed as “Not Active”.

Tested on in the next experiment: not listed separately
The experiment is described as follows: DRUGMATRIX: Phosphodiesterase PDE4 enzyme inhibition (substrate: [3H]cAMP + cAMP). To be noted: u-937; Not Active = under 50% inhibition at 10 µM.
With `Cc1cccc(Nc2ccccc2C(=O)O)c1C` [MEFENAMIC ACID], the IC50 result is listed as “Not Active” and the Ki result is “Not Active”.

For the compound `COc1ccccc1OCC(O)COC(N)=O` (stereo not given) [METHOCARBAMOL], the IC50 entry was “Not Active” and the Ki entry was “Not Active”.

In the case of `COc1ccc2cc(CCC(C)=O)ccc2c1` [NABUMETONE], the IC50 result is “Not Active” and the Ki entry is listed as “Not Active”.

`CNC(=C[N+](=O)[O-])NCCSCc1csc(CN(C)C)n1` [NIZATIDINE]: the IC50 entry is “Not Active” and the Ki entry was “Not Active”.

For `C[C@]12C/C(=C/O)C(=O)C[C@@H]1CC[C@@H]1[C@@H]2CC[C@@]2(C)[C@H]1CC[C@]2(C)O` [OXYMETHOLONE], the IC50 result is on record as “Not Active” and the Ki result is reported as “Not Active”.

Consider `OCCN1CCN(CCCN2c3ccccc3Sc3ccc(Cl)cc32)CC1` [PERPHENAZINE], for which the IC50 result was “Not Active” and the Ki result is given as “Not Active”.

A further experiment has as its target T2, Caspase-1 (Homo sapiens, UniProt P29466).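 Further: Caspase-1 enzyme inhibition assay with a peptide substrate; in other assays of this panel Not Active means under 50% inhibition at 10 µM.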
T2 sequence (P29466 whole entry): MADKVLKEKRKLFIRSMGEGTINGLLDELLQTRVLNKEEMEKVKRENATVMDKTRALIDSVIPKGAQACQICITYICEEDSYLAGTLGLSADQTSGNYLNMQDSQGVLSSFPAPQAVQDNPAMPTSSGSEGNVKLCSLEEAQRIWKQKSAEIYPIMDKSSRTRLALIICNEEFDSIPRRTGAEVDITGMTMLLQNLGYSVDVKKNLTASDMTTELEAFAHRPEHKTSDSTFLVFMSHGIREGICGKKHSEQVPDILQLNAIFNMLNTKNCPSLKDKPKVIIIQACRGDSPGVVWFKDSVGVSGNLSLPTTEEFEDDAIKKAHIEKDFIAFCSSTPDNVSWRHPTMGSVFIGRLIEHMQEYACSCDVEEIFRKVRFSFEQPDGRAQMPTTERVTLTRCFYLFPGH
More on the design: species or system Escherichia coli.
Details: not given
Consider `Cc1cccc(Nc2ccccc2C(=O)O)c1C` [MEFENAMIC ACID], for which the IC50 entry is recorded as “Not Active”.

For `COc1ccccc1OCC(O)COC(N)=O` (stereo not given) [METHOCARBAMOL], the IC50 result was “Not Active”.

For `COc1ccc2cc(CCC(C)=O)ccc2c1` [NABUMETONE], the IC50 result was “Not Active”.

Regarding `CNC(=C[N+](=O)[O-])NCCSCc1csc(CN(C)C)n1` [NIZATIDINE], the IC50 entry is “Not Active”.

Turning to `C[C@]12C/C(=C/O)C(=O)C[C@@H]1CC[C@@H]1[C@@H]2CC[C@@]2(C)[C@H]1CC[C@]2(C)O` [OXYMETHOLONE], the IC50 entry is given as “Not Active”.

With `OCCN1CCN(CCCN2c3ccccc3Sc3ccc(Cl)cc32)CC1` [PERPHENAZINE], the IC50 result was “Not Active”.

For a further experiment, the target named is T3, Adenosine receptor A1 (Homo sapiens, UniProt P30542).
T3 sequence (P30542 whole entry): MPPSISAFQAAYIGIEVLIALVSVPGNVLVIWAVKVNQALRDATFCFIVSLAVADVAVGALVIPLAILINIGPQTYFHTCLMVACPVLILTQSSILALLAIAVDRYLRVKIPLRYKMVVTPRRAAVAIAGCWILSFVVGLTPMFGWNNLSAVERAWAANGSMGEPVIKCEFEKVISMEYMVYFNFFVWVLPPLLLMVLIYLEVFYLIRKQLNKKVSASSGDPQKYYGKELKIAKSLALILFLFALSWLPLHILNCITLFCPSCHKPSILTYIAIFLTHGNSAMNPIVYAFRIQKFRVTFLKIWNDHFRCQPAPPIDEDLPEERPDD
It is filed as cell membranes, CHO, Membrane. To be noted: cho.
With `Cc1cccc(Nc2ccccc2C(=O)O)c1C` [MEFENAMIC ACID], the IC50 result is “Not Active”.

For `COc1ccccc1OCC(O)COC(N)=O` (stereo not given) [METHOCARBAMOL], the IC50 result was “Not Active”.

Consider `COc1ccc2cc(CCC(C)=O)ccc2c1` [NABUMETONE], for which the IC50 entry is recorded as “Not Active”.

On to `CNC(=C[N+](=O)[O-])NCCSCc1csc(CN(C)C)n1` [NIZATIDINE], for which the IC50 result is recorded as “Not Active”.

`C[C@]12C/C(=C/O)C(=O)C[C@@H]1CC[C@@H]1[C@@H]2CC[C@@]2(C)[C@H]1CC[C@]2(C)O` [OXYMETHOLONE]: the IC50 result is “Not Active”.

Regarding `OCCN1CCN(CCCN2c3ccccc3Sc3ccc(Cl)cc32)CC1` [PERPHENAZINE], the IC50 result is recorded as “Not Active”.

In a further experiment the target is T4, Glucocorticoid receptor (Homo sapiens, UniProt P04150). Further: in other assays of this panel Not Active means under 50% inhibition at 10 µM.
T4 sequence (P04150 whole entry): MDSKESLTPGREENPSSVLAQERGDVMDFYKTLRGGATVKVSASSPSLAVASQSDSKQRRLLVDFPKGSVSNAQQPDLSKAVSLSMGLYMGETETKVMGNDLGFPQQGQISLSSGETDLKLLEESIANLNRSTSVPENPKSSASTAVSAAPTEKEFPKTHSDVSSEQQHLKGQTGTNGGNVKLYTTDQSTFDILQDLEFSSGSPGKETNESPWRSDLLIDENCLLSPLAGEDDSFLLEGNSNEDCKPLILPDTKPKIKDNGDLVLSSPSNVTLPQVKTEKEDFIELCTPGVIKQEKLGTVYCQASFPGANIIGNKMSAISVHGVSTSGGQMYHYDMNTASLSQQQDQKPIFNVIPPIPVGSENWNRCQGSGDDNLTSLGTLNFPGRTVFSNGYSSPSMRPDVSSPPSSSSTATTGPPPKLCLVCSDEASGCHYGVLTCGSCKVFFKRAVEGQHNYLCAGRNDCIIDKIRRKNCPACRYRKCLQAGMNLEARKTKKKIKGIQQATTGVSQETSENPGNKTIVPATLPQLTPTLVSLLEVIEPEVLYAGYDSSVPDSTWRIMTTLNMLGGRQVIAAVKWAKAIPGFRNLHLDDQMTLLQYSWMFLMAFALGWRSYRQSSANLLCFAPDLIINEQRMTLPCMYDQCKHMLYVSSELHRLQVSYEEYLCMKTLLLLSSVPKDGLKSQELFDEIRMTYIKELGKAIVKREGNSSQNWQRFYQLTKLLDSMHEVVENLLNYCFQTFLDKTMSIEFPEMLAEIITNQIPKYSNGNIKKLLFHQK
The note with it: hela s3.
As for `Cc1cccc(Nc2ccccc2C(=O)O)c1C` [MEFENAMIC ACID], the IC50 entry is “Not Active”.

Consider `COc1ccccc1OCC(O)COC(N)=O` (stereo not given) [METHOCARBAMOL], for which the IC50 entry is “Not Active”.

`COc1ccc2cc(CCC(C)=O)ccc2c1` [NABUMETONE]: the IC50 result was “Not Active”.

Regarding `CNC(=C[N+](=O)[O-])NCCSCc1csc(CN(C)C)n1` [NIZATIDINE], the IC50 result is “Not Active”.

Regarding `C[C@]12C/C(=C/O)C(=O)C[C@@H]1CC[C@@H]1[C@@H]2CC[C@@]2(C)[C@H]1CC[C@]2(C)O` [OXYMETHOLONE], the IC50 result is on record as “Not Active”.

For `OCCN1CCN(CCCN2c3ccccc3Sc3ccc(Cl)cc32)CC1` [PERPHENAZINE], the IC50 entry is on record as “Not Active”.

These data come from ChEMBL document CHEMBL1909046, “DrugMatrix in vitro pharmacology data”.
